Assay results taken from patent US20260274892A1, “MACROCYCLIC BROAD SPECTRUM ANTIBIOTICS” (RQx Pharmaceuticals, Inc., priority 2017, published 2026).

Tests used:
[1] = tested on: Methicillin Resistant Staphylococcus aureus strain USA 200; assay: Minimum inhibitory concentration (MIC), CLSI broth micro-dilution, S. aureus; format: cell-based; settings: Staphylococcus aureus, MRSA / USA200; Table 6; MRSA USA 200; cation adjusted Mueller Hinton Broth + 0.002% Tween-80; 35° C., 22 hours
Outline: (§1)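 Colonies grown 20 h at 35° C on Trypticase Soy agar (MRSA) or Luria agar (E. coli) were suspended in cation-adjusted Mueller Hinton broth with 0.002% Tween-80. Suspensions were added at OD600 0.0005 to 10-point twofold compound dilutions, then incubated 22 h at 35° C.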

[2] = tested on: Escherichia coli ATCC 25922; assay: Minimum inhibitory concentration (MIC), CLSI broth micro-dilution, E. coli; format: cell-based; settings: Escherichia coli, ATCC25922, 22 h, Table 6, cation adjusted Mueller Hinton Broth + 0.002% Tween-80, 35° C.
Outline: as §1

Row | Structure (SMILES) | MIC [1] [µM] | MIC [2] [µM]
1 | CCCCCCCc1ccc(C(=O)N[C@@H](CCN)C(=O)N(C)[C@@H]2C(=O)N[C@@H](C3CC3)C(=O)N[C@H](C(=O)NCC#N)Cc3ccc(OCCN)c(c3)-c3cc2ccc3OCCN)c(C)c1 (racemic) [Compound 478, rac-(8S,11S,14S)-3,18-bis(2-aminoethoxy)-N-(cyanomethyl)-11-cyclopropyl-14-[methyl-[rac-(2S)-4-amino-2-[(4-heptyl-2-methyl-benzoyl)amino]butanoyl]amino]-10,13-dioxo-9,12-diazatricyclo[13.3.1.12,6]icosa-1(18),2(20),3,5,15(19),16-hexaene-8-carboxamide] | 0.071 | 1.1
2 | CCCCCc1ccc(-c2nc(C)c(C(=O)N[C@@H](CCN)C(=O)N(C)[C@@H]3C(=O)N[C@@H](C)C(=O)N[C@H](C(=O)NCC#N)Cc4ccc(OCCN)c(c4)-c4cc3ccc4OCCN)o2)cc1 (racemic) [Compound 381, 4-methyl-2-(4-pentylphenyl)-N-[rac-(1S)-3-amino-1-[methyl-[rac-(7S,10S,13S)-3,18-bis(2-aminoethoxy)-13-(cyanomethylcarbamoyl)-10-methyl-8,11-dioxo-9,12-diazatricyclo[13.3.1.12,6]icosa-1(19),2,4,6(20),15,17-hexaen-7-yl]carbamoyl]propyl]oxazole-5-carboxamide] | 0.067 | 4.3
3 | Cc1nc(-c2ccc(OCCC(C)(C)C)cc2)nc(C)c1C(=O)N[C@@H](CCN)C(=O)N(C)[C@@H]1C(=O)N[C@@H](C)C(=O)N[C@H](C(=O)NCC#N)Cc2ccc(OCCN)c(c2)-c2cc1ccc2OCCN (racemic) [Compound 338, rac-(8S,11S,14S)-3,18-bis(2-aminoethoxy)-N-(cyanomethyl)-11-methyl-14-[methyl-[rac-(2S)-4-amino-2-[[2-[4-(3,3-dimethylbutoxy)phenyl]-4,6-dimethyl-pyrimidine-5-carbonyl]amino]butanoyl]amino]-10,13-dioxo-9,12-diazatricyclo[13.3.1.12,6]icosa-1(18),2(20),3,5,15(19),16-hexaene-8-carboxamide] | 0.012 | 0.13
4 | Cc1nc(-c2ccc(OC(C)C)cc2)nc(C)c1C(=O)N[C@@H](CCN)C(=O)N(C)[C@@H]1C(=O)N[C@@H](C)C(=O)N[C@H](C(=O)NCC#N)Cc2ccc(O)c(c2)-c2cc1ccc2OCCN (racemic) [Compound 552, rac-(8S,11S,14S)-18-(2-aminoethoxy)-N-(cyanomethyl)-3-hydroxy-11-methyl-14-[methyl-[rac-(2S)-4-amino-2-[[2-(4-isopropoxyphenyl)-4,6-dimethyl-pyrimidine-5-carbonyl]amino]butanoyl]amino]-10,13-dioxo-9,12-diazatricyclo[13.3.1.12,6]icosa-1(18),2(20),3,5,15(19),16-hexaene-8-carboxamide] | 0.25 | 1.4
5 | CCCCCc1ccc(-c2nc(C)c(C(=O)N[C@H](CCN)C(=O)N(C)[C@@H]3C(=O)N[C@@H](C)C(=O)N[C@H](C(=O)NCC#N)Cc4ccc(OCCN)c(c4)-c4cc3ccc4OCCN)o2)cc1 (racemic) [Compound 382, 4-methyl-2-(4-pentylphenyl)-N-[rac-(1R)-3-amino-1-[methyl-[rac-(7S,10S,13S)-3,18-bis(2-aminoethoxy)-13-(cyanomethylcarbamoyl)-10-methyl-8,11-dioxo-9,12-diazatricyclo[13.3.1.12,6]icosa-1(19),2,4,6(20),15,17-hexaen-7-yl]carbamoyl]propyl]oxazole-5-carboxamide] | 0.4 | 4.3
6 | CCCC(CCC)Oc1ccc(-c2nc(C)c(C(=O)N[C@@H](CCN)C(=O)N(C)[C@@H]3C(=O)N[C@@H](C)C(=O)N[C@H](C(=O)NCC#N)Cc4ccc(OCCN)c(c4)-c4cc3ccc4OCCN)c(C)n2)cc1 (racemic) [Compound 341, rac-(8S,11S,14S)-3,18-bis(2-aminoethoxy)-N-(cyanomethyl)-11-methyl-14-[methyl-[rac-(2S)-4-amino-2-[[4,6-dimethyl-2-[4-(1-propylbutoxy)phenyl]pyrimidine-5-carbonyl]amino]butanoyl]amino]-10,13-dioxo-9,12-diazatricyclo[13.3.1.12,6]icosa-1(18),2(20),3,5,15(19),16-hexaene-8-carboxamide] | 0.016 | 0.13
7 | Cc1nc(-c2ccc(OC3CCCCC3)cc2)nc(C)c1C(=O)N[C@@H](CCCNC(N)=O)C(=O)N(C)[C@@H]1C(=O)N[C@@H](C)C(=O)N[C@H](C(=O)NCC#N)Cc2ccc(OCCN)c(c2)-c2cc1ccc2OCCN [Compound 501, (8S,11S,14S)-3,18-bis(2-aminoethoxy)-N-(cyanomethyl)-14-[[(2S)-2-[[2-[4-(cyclohexoxy)phenyl]-4,6-dimethyl-pyrimidine-5-carbonyl]amino]-5-ureido-pentanoyl]-methyl-amino]-11-methyl-10,13-dioxo-9,12-diazatricyclo[13.3.1.12,6]icosa-1(18),2(20),3,5,15(19),16-hexaene-8-carboxamide] | 0.063 | 1
8 | Cc1nc(-c2ccc(N3CCC3)cc2)nc(C)c1C(=O)N[C@@H](CCN)C(=O)N(C)[C@@H]1C(=O)N[C@@H](C)C(=O)N[C@H](C(=O)NCC#N)Cc2ccc(OCCN)c(c2)-c2cc1ccc2OCCN (racemic) [Compound 323, rac-(8S,11S,14S)-3,18-bis(2-aminoethoxy)-N-(cyanomethyl)-11-methyl-14-[methyl-[rac-(2S)-4-amino-2-[[2-[4-(azetidin-1-yl)phenyl]-4,6-dimethyl-pyrimidine-5-carbonyl]amino]butanoyl]amino]-10,13-dioxo-9,12-diazatricyclo[13.3.1.12,6]icosa-1(18),2(20),3,5,15(19),16-hexaene-8-carboxamide] | 0.38 | 1

The remaining compounds from weak to strong by MIC [1], led by results:

Row | MIC [1] [µM] | MIC [2] [µM] | Structure (SMILES)
9 | 0.15 | 0.6 | Cc1nc(-c2ccc(N3CCC(F)(F)CC3)cc2)nc(C)c1C(=O)N[C@@H](CCN)C(=O)N(C)[C@@H]1C(=O)N[C@@H](C)C(=O)N[C@H](C(=O)NCC#N)Cc2ccc(OCCN)c(c2)-c2cc1ccc2OCCN (racemic) [Compound 322, rac-(8S,11S,14S)-3,18-bis(2-aminoethoxy)-N-(cyanomethyl)-11-methyl-14-[methyl-[rac-(2S)-4-amino-2-[[2-[4-(4,4-difluoro-1-piperidyl)phenyl]-4,6-dimethyl-pyrimidine-5-carbonyl]amino]butanoyl]amino]-10,13-dioxo-9,12-diazatricyclo[13.3.1.12,6]icosa-1(18),2(20),3,5,15(19),16-hexaene-8-carboxamide]
10 | 0.031 | 0.19 | Cc1nc(-c2ccc(C(C)(C)C)cc2)nc(Cl)c1C(=O)N[C@@H](CCN)C(=O)N(C)[C@@H]1C(=O)N[C@@H](C)C(=O)N[C@H](C(=O)NCC#N)Cc2ccc(OCCN)c(c2)-c2cc1ccc2OCCN (racemic) [Compound 421, rac-(8S,11S,14S)-3,18-bis(2-aminoethoxy)-N-(cyanomethyl)-11-methyl-14-[methyl-[rac-(2S)-4-amino-2-[[2-(4-tert-butylphenyl)-4-chloro-6-methyl-pyrimidine-5-carbonyl]amino]butanoyl]amino]-10,13-dioxo-9,12-diazatricyclo[13.3.1.12,6]icosa-1(18),2(20),3,5,15(19),16-hexaene-8-carboxamide]
11 | 0.031 | 0.25 | Cc1nc(-c2ccc(C3CC3)cc2)nc(C)c1C(=O)N[C@@H](CCN)C(=O)N(C)[C@@H]1C(=O)N[C@@H](C)C(=O)N[C@H](C(=O)NCC#N)Cc2ccc(OCCN)c(c2)-c2cc1ccc2OCCN (racemic) [Compound 300, rac-(8S,11S,14S)-3,18-bis(2-aminoethoxy)-N-(cyanomethyl)-11-methyl-14-[methyl-[rac-(2S)-4-amino-2-[[2-(4-cyclopropylphenyl)-4,6-dimethyl-pyrimidine-5-carbonyl]amino]butanoyl]amino]-10,13-dioxo-9,12-diazatricyclo[13.3.1.12,6]icosa-1(18),2(20),3,5,15(19),16-hexaene-8-carboxamide]
12 | 0.016 | 0.19 | Cc1nc(-c2ccc(S(F)(F)(F)(F)F)cc2)ncc1C(=O)N[C@@H](CCN)C(=O)N(C)[C@@H]1C(=O)N[C@@H](C)C(=O)N[C@H](C(=O)NCC#N)Cc2ccc(OCCN)c(c2)-c2cc1ccc2OCCN (racemic) [Compound 225, rac-(8S,11S,14S)-3,18-bis(2-aminoethoxy)-N-(cyanomethyl)-11-methyl-14-[methyl-[rac-(2S)-4-amino-2-[[4-methyl-2-[4-(pentafluoro-lambda6-sulfanyl)phenyl]pyrimidine-5-carbonyl]amino]butanoyl]amino]-10,13-dioxo-9,12-diazatricyclo[13.3.1.12,6]icosa-1(18),2(20),3,5,15(19),16-hexaene-8-carboxamide]
13 | 0.016 | 0.13 | CCCCc1ccc(-c2cc(C)c(C(=O)N[C@@H](CCN)C(=O)N(C)[C@@H]3C(=O)N[C@@H](C)C(=O)N[C@H](C(=O)NCC#N)Cc4ccc(OCCN)c(c4)-c4cc3ccc4OCCN)c(C)n2)cc1 (racemic) [Compound 366, rac-(8S,11S,14S)-3,18-bis(2-aminoethoxy)-N-(cyanomethyl)-11-methyl-14-[methyl-[rac-(2S)-4-amino-2-[[6-(4-butylphenyl)-2,4-dimethyl-pyridine-3-carbonyl]amino]butanoyl]amino]-10,13-dioxo-9,12-diazatricyclo[13.3.1.12,6]icosa-1(18),2(20),3,5,15(19),16-hexaene-8-carboxamide]
